Measured values reported in patent US20110034385A1, “Compositions Useful for the Treatment of Diabetes and Other Chronic Disorder” (NATIONAL INSTITUTE OF IMMUNOLOGY, priority 2008, published 2011).
Each block holds one compound with its values, some of them ahead of it.

What was measured:
[1] = test system: ovariectomized (OVX) rats; conditions: rat, in vivo
Method: 44 female Sprague-Dawley rats (Charles River Laboratory, Wilmington, Mass.), approximately 90 days of age with an average body weight of 230 g were grouped into four groups at the beginning of the study. All rats were anesthetized with an intraperitoneal injection of ketamine hydrochloride and xylazine at doses of 50 and 10 mg/kg body weight (BW), respectively. Bilateral ovariectomies were performed in three groups from a dorsal approach. All rats were housed individually at 25° C. with a 12 h light/12 h dark cycle. The food consumption of ovariectomized (OVX) rats was restricted to that of the control rats to minimize increase in the body weight associated with ovariectomy. All rats were treated for 8 weeks with vehicle or Human/salmon CT (Sigma) either intermittently by subcutaneous injection or continuously by Alzet osmotic minipumps (Model 2ML4; Alza Corp., Palo Alto, Calif.) containing 200 μl of either CT (4 μg/kg) or SCA (Supramolecular calcitonin assembly) (2 mg/ml) in 2% mannitol, designed to deliver the solutions at a constant rate of 2.5 μl/h for 28 days. The intermittent treatments started a day after surgery. The minipumps for continuous CT or Calcitonin SCA or vehicle treatments were implanted at the time of surgery (day 0) and replaced after 3 weeks in case of continuous CT and vehicle treatment. […] For subcutaneous injections of CT, the hormone was dissolved in a vehicle of 2% mannitol.
Half of the OVX rats from this group were injected subcutaneously on alternate days with 2% mannitol as a vehicle. The remaining OVX rats in this group were implanted subcutaneously with Alzet osmotic minipumps for continuous infusion of vehicle.
Each OVX rat of one group was injected subcutaneously on alternate days with salmon CT at a dose of 16 U/kg BW (4 μg/kg b wt), and the other was implanted subcutaneously with an Alzet osmotic minipump for continuous infusion of human CT. The daily dose delivered to each rat by the minipump was 8 U/kg BW (2 μg/kg BW), which was equivalent to the dose given to the preceding group through subcutaneous injections on alternate days (16 U/kg).
Serum samples were stored at −80° C. until analyzed for their CT concentration by immunoassay methods with a commercially available kit (Bio-Merica). […] Calcitonin in serum was measured by an immunoassay kit.
Data are expressed as the mean±standard deviation (SD) for each group. Statistical differences were evaluated by analysis of variance. P values<0.05 were considered to be significant.

[2] = test system: rats with kaolin/carrageenan (KC) arthritis; assay: Hot plate test in kaolin/carrageenan arthritis; format: in vivo, rat
Method: Male wistar rats, weighing 180-220 g were selected and fed ad libitum. After four days of acclimatization, the rats were divided into five groups. Group I—control, Group II—Ibuprofen (10 mg/kg b.wt.), Group III—Ibuprofen (50 mg/kg b.wt.), Group IV—Ibuprofen coupled to transthyretin (TTR) or GNNQQNY injected intraperitoneally and Group V—carrageenin control. Groups II-V was anesthetized with halothane and KC arthritis was induced by an intra-articular injection of a mixture of 3% kaolin and 3% carrageenan (0.1 ml in sterile saline) into the synovial cavity of right knee joint. The joint was then manipulated by rapid flexion and extension movements for 1 min. Half an hour after injection of kaolin/carrageenan, the animals were treated as indicated above, with group II and II receiving daily injections of Ibuprofen orally. In the hot plate test method, rats from each group were placed on an analgesiometer, at a temperature of 55° C., and the latency in licking their paw was determined with a stop watch, one hour after treatment on day one (FIG. 32a), and thereafter everyday for four days (FIG. 32b). A 90-s cut-off time was imposed to prevent tissue damage.

MCF 7 cells = assay: MTT cell proliferation assay; format: cell-based; conditions: 3 days after treatment
Method: Cells were plated in 24-well plates with 10,000 cells/well in regular DMEM media containing 10% FBS. All treatments were done in triplicates. Growth was measured 3 days after treatment. Growth was assayed by the MTT assay. A total of 50 μl of 5 mg/ml MTT solution in PBS was added to each well. After incubation for 4 h at 37° C., formazan crystals were lysed with 500 μl of solubilization solution (20% SDS, 50% DMSO). Absorbance was measured with a plate reader at 570 nm using a 670-nm differential filter.

[3] = test system: insulin signaling cascade (PI3K, Akt, GSK3β, ERK1/2) in rat adipocytes; assay: Western blot of insulin signaling cascade in cultured adipocytes; format: cell-based; conditions: compared to control
Method: Rat adipocytes were isolated and cultured according to the method described by Björntorp et al. (Björntorp, P., Karlsson, M., Pettersson, P. & Sypniewska, G. Differentiation and function of rat adipocyte precursor cells in primary culture. J. Lipid Res. 21, 714-723 (1987)). Male Wistar rats fed freely were sacrificed and epididymal fat tissue was dissected and collected in reagent A (HBSS, 100 U/ml penicillin, 100 μg/ml streptomycin and […] gentamycin). The tissue was washed properly in HBSS. Following this the tissue was cut and minced finely and transferred to a falcon, centrifuged at 200 g for 2 min. The layer of transparent oil was removed and the adipocyte cell layer (thick and dense) was added to three times the volume of reagent B (reagent A containing 0.1% BSA and 1 mg/ml Collagenase) in a flask. The flask was incubated at 37° C. for 60 min with continuous slow shaking. The reaction was stopped by addition of DMEM complete media (with HEPES 15 mM, glc, 0.1% BSA, 50 nM adenosine and 1% fetal bovine serum) three times the volume and incubated at room temperature for 5 min. […]
After incubation, the cells were collected in a falcon tube and centrifuged at 200 g for 10 min. […] Adipocytes treated with (a) PBS, insulin, SIA-II, insulin released from SIA-II, (b) serum as indicated, and analysed for insulin signaling.

[4] = test system: STZ-induced diabetic rats; assay: Blood glucose control in streptozotocin-induced diabetic rats; format: in vivo, rat
Method: Nine weeks old Male Wistar rats (Rattus norvegicus albinus, Rodentia mammalia) weighing 210±10 g were used. Rats were housed in commercially available polypropylene cages and maintained under controlled temperature conditions on a 12 h light-dark cycle and allowed to access food and water ad libitum.
Male Wistar Rats weighing 250-300 g were divided into four groups and blood glucose estimation was done using Roche Accu Check glucose strips. Rats were kept on fasting for 48 hours. 50 mg/kg b.wt of Streptozotocin prepared freshly in citrate buffer (pH 4.5) was administered intraperitoneally to 10-20 rats. Food was provided immediately and blood glucose levels were checked after three days. The animals were grouped according to their blood glucose level (group I: 250-350 mg/dl, group II: 350-450 mg/dl and group III: >450 mg/dL).
A group of 5 normal rats injected 100 μl of PBS, served as the non-diabetic control. Body weight and blood glucose levels, both pre-prandial after 8-10 hr fasting and post-prandial were checked initially daily and then with decreasing frequency.

STZ treated rats = assay: Intraperitoneal glucose tolerance test (IPGTT); format: in vivo, rat
Method: The STZ treated (n=12) and normal rats (n=4) were kept on fasting for 12 hrs. Blood glucose levels were monitored as described above. For glucose tolerance test was done. […] Blood glucose levels were monitored at 0, 30, 90, 150, 270 and 330 min after treatment. Serum was isolated for various time points and a graph was plotted between blood glucose level and time. FIG. 12 provides blood glucose profile of Intraperitoneal Glucose Tolerance Test (IPGTT).

[5] = test system: STZ-induced diabetic rats; assay: Clinical parameters for the evaluation of toxicity of SIA II; format: in vivo, rat; conditions: end of three month study
Text: Serum isolated from blood samples collected at the end of the three month study and subjected to various tests indicated in the Table. Results are mean±s.d. of three different experiments having n=4 animals in each group.

Male wistar rats = assay: Hyperglycemic clamp after treatment with SIA II; format: in vivo, rat; conditions: one week, one month and three month
Method: Male wistar rats were anesthetized (Isoflurane 2%) and a carotid and jugular catheter installed to allow blood withdrawal and glucose injections (20% glucose solution) to clamp blood glucose level at 600 mg/dL. Following a 12 hours fasting period, glucose was infused in all groups to make them hyperglycemic. This was followed by blood withdrawal at indicated time intervals, for blood glucose measurements and the rate of glucose infusion to retain them hyperglycemic were calculated. This procedure was repeated after one and three months of SIA II administration (FIG. 16 a-c).

[6] = test system: fat-fed/streptozotocin-diabetic rats; assay: Type II diabetes model, fat-fed/streptozotocin-diabetic rats; format: in vivo, rat
Method: Male Wistar rats, 7 weeks of age, and weighing approximately 200 g, were used for all studies. […] After 2 weeks on either diet, animals (with the exception of non-injected controls) after an overnight fast were injected with STZ (50 mg/kg) into the tail vein via a temporary indwelling 24-gauge catheter. Animals had free access to food and water after the STZ injection, and both STZ-injected and non-injected animals were continued on their original diets (chow or fat) for the duration of the study.

[7] = Serum insulin quantification by ELISA; conditions: in 30 min
Method: Serum was isolated from the blood samples collected and stored at −20° C. till further analysis.

[8] = test system: STZ-induced diabetic rats; assay: Clinical parameters for the evaluation of toxicity of SIA II; format: in vivo, rat
[9] = insulin: single dose of 4 IU/kg daily, SIA: single injection 200 μg

Calcitonin (serum) [1]: 19.1 ± 4.2
antibody against salmon calcitonin [1]: negligible
serum levels of calcitonin [1]: 19 pg/mL
time depot keeps on releasing calcitonin [1]: 6-8 weeks
time serum calcitonin maintained at a higher level [1]: up to 60 days
Compound: CC(C)C[C@H](NC(=O)[C@H](CCCCN)NC(=O)CNC(=O)[C@H](CC(C)C)NC(=O)[C@@H](NC(=O)[C@@H]1CSSC[C@H](N)C(=O)N[C@@H](CO)C(=O)N[C@@H](CC(N)=O)C(=O)N[C@@H](CC(C)C)C(=O)N[C@@H](CO)C(=O)N[C@@H]([C@@H](C)O)C(=O)N1)C(C)C)C(=O)N[C@@H](CO)C(=O)N[C@@H](CCC(N)=O)C(=O)N[C@@H](CCC(=O)O)C(=O)N[C@@H](CC(C)C)C(=O)N[C@@H](Cc1c[nH]cn1)C(=O)N[C@@H](CCCCN)C(=O)N[C@@H](CC(C)C)C(=O)N[C@@H](CCC(N)=O)C(=O)N[C@H](C(=O)N[C@@H](Cc1ccc(O)cc1)C(=O)N1CCC[C@H]1C(=O)N[C@@H](CCCNC(=N)N)C(=O)N[C@H](C(=O)N[C@@H](CC(N)=O)C(=O)N[C@H](C(=O)NCC(=O)N[C@@H](CO)C(=O)NCC(=O)N[C@H](C(=O)N1CCC[C@H]1C(N)=O)[C@@H](C)O)[C@@H](C)O)[C@@H](C)O)[C@@H](C)O [SCA]

Compound: CC(C)Cc1ccc(C(C)C(=O)O)cc1 (stereo not drawn) [Ibuprofen]
latency in licking paw (heat endured) ([2]; 10 mg/kg b.wt orally): up to 12 sec
latency in licking paw (heat endured) ([2]; 50 mg/kg b.wt orally): ≤ 17 s

Compound: IGF 1: Insulin like growth factor I, positive control for proliferation of MCF 7 cells
proliferation of MCF 7 cells (MCF 7 cells): mitogenic

Compound: Insulin: free, non-supramolecularly organized insulin; bovine insulin 4 U/kg intraperitoneally
activation of ERK 1/2 [3]: significant activation
phosphorylation of GSK3β [3]: increased several fold
blood glucose levels ([4]; insulin intraperitoneally everyday): 300 ± 100 mg/dL
fasting blood glucose [4, 9]: 300 to 400 mg/dL
non-fasting blood glucose [4, 9]: 350 to 450 mg/dL
duration of action ([4]; standard insulin injection): 6 to 10 h
time for elevated blood glucose to return to pre challenged levels (STZ treated rats; after glucose infusion 3 g/kg IP): ≤ 1.5 h
onset of effect in IPGTT (STZ treated rats; severe hyperglycemia): ≤ 30 min
Alkaline Phosphatase ([5]; Single daily Insulin Injection): 777.8 ± 89.4 U/L
Bilirubin (Direct) ([5]; Single daily Insulin Injection): 0.36 ± 0.08 mg/dL
Bilirubin (Total) ([5]; Single daily Insulin Injection): 0.40 ± 0.08 mg/dL
Chloride ([5]; Single daily Insulin Injection): 165 ± 23 mEq/L
Phosphorous ([5]; Single daily Insulin Injection): 6.5 ± 1.3 mEq/L
SGOT ([5]; Single daily Insulin Injection): 355 ± 83 U/L
SGPT ([5]; Single daily Insulin Injection): 86 ± 36 U/L
Serum A/G ratio ([5]; Single daily Insulin Injection): 0.595
Serum Albumin ([5]; Single daily Insulin Injection): 2.5 ± 0.21 g/dL
Serum Creatinine ([5]; Single daily Insulin Injection): 1.01 ± 0.30 mg/dL
Serum Globulin ([5]; Single daily Insulin Injection): 4.2 ± 0.18 g/dL
Serum total proteins ([5]; Single daily Insulin Injection): 6.70 ± 0.21 g/dL
Sodium ([5]; Single daily Insulin Injection): 200 ± 26 mEq/L
Urea ([5]; Single daily Insulin Injection): 58.3 ± 9.2 mg/dL
Uric Acid ([5]; Single daily Insulin Injection): 3.0 ± 0.81
Adipose Tissue ([5]; Twice daily Insulin Injection): Decreased
Alkaline Phosphatase ([5]; Twice daily Insulin Injection): 489 ± 65 U/L
Bilirubin (Direct) ([5]; Twice daily Insulin Injection): 0.25 ± 0.06 mg/dL
Bilirubin (Total) ([5]; Twice daily Insulin Injection): 0.35 ± 0.1 mg/dL
Chloride ([5]; Twice daily Insulin Injection): 119 ± 26 mEq/L
Phosphorous ([5]; Twice daily Insulin Injection): 6.2 ± 0.95 mEq/L
SGOT ([5]; Twice daily Insulin Injection): 300 ± 56 U/L
SGPT ([5]; Twice daily Insulin Injection): 85 ± 15 U/L
Serum A/G ratio ([5]; Twice daily Insulin Injection): 0.955
Serum Albumin ([5]; Twice daily Insulin Injection): 3.2 ± 0.19 g/dL
Serum Creatinine ([5]; Twice daily Insulin Injection): 0.88 ± 0.21 mg/dL
Serum Globulin ([5]; Twice daily Insulin Injection): 3.35 ± 0.15 g/dL
Serum total proteins ([5]; Twice daily Insulin Injection): 5.55 ± 0.25 g/dL
Sodium ([5]; Twice daily Insulin Injection): 198 ± 45.5 mEq/L
Urea ([5]; Twice daily Insulin Injection): 60.1 ± 12.36 mg/dL
Uric Acid ([5]; Twice daily Insulin Injection): 3.1 ± 0.56
rate of glucose infused for maintaining hyperglycemic state (Male wistar rats): decreases over time
B W ([6]; 1 week): 261
BGL ([6]; 1 week): 420 mg/dL
FFA ([6]; 1 week): 1.9 ± 0.08 mmol/L
Rat Insulin ([6]; 1 week): 37.09 ± 4.7 μU/ml
TG ([6]; 1 week): 0.77 ± 0.05 mmol/L
B W ([6]; 2 week): 263
BGL ([6]; 2 week): 401 mg/dL
FFA ([6]; 2 week): 2.1 ± 0.08 mmol/L
Rat Insulin ([6]; 2 week): 37.09 ± 4.7 μU/ml
TG ([6]; 2 week): 0.75 ± 0.05 mmol/L
B W ([6]; 3 week): 269
BGL ([6]; 3 week): 390 mg/dL
FFA ([6]; 3 week): 1.8 ± 0.08 mmol/L
Rat Insulin ([6]; 3 week): 37.09 ± 4.7 μU/ml
TG ([6]; 3 week): 0.73 ± 0.05 mmol/L
BGL ([6]; 4 week): 396 mg/dL
FFA ([6]; 4 week): 2.1 ± 0.08 mmol/L
Rat Insulin ([6]; 4 week): 37.09 ± 4.7 μU/ml
TG ([6]; 4 week): 0.76 ± 0.05 mmol/L
increase of TAGs and FFA levels in serum ([6]; serum): up to 1.5 fold
proliferation of MCF 7 cells (MCF 7 cells): does not cause proliferation of cells
serum bovine insulin in IPGTT [7]: ~0.9 ng/mL
Adipose Tissue ([8]; Single daily Insulin Injection, end of three month study): Decreased
cataract formation ([8]; diabetic rats): Development of cataract
